# Where a name gives a salt, the structure may show the parent alone. Read-outs that look alike come from different tables or passages of the source.
# Legend:
# [1] = tested on: anaesthetized open-chest dogs; assay: Investigation on anaesthetized open-chest dogs (MCF, coronary flow, blood pressure, heart rate); format: in vivo, dog
# Experimental: (B) Investigation on anaesthetized dogs
# The animals were i.v. anaesthetized by 35 mg/kg of pentobarbital-sodium. After opening the chest and pericardium, the lower ascending part of the left circumflex coronary artery was prepared and fitted with an electromagnetic flow probe for measuring the blood flow in the coronary artery. A strain gauge arch was placed onto the area supplied by this coronary artery for measuring the MCF. For determining the systemic blood pressure a femoral arterial cannule, for i.v. drug administration a femoral venous cannule was used. The dp/dt value was calculated from the pressure measured by a Millar type pressure transducer introduced to the left ventricle. All parameters were registered on a Beckman R 12 8-channel dynograph.
# [2] = tested on: patients; details: cited from earlier work
# [3] = tested on: open-chest, anaesthetized cats; assay: MCF-increasing effect in open-chest, anaesthetized cats (strain gauge arch on left ventricle); format: in vivo, cat; details: for change in vivo at 5 mg/kg: Felis catus, iv, 5 mg/kg i.v., open-chest anaesthetized cats, read-out: Increase in MCF as % of the initial value
# Experimental: (A) Investigation on anaesthetized cats
# The animals were intravenously (i.v.) anaesthetized by 30 mg/kg of pentobarbital-sodium. After arranging the artificial respiration, the chest and pericardium were opened. A strain gauge arch was sutured onto the epicardial surface of the left ventricle [J. Pharm. Exp. Ther. 90, 26 (1947)]. The blood pressure was measured by a catheter inserted to the femoral artery and joined to a P 23 Db pressure transducer and electromanometer. The test compounds were administered either i.v. through a femoral vein cannule, or intraduodenally (i.d.) through the duodenum cannule. At the beginning of the experiment, 0.2 μg/kg of isoproterenol (IS) was i.v. given as an internal standard for checking the myocardial reactivity. Namely, the value of the peak MCF response can also be altered according to the individual animals in the case of each positive inotropic agent. Thus, IS was not used as a real reference drug.
# The MCF responses were expressed in the percentage changes of the initial value: the effect on MCF of 5 mg/kg i.v. of the test compound was compared to that of 0.2 μg/kg i.v. of IS.
# [4] = target: T1, Na-K-ATP-ase (Homo sapiens, UniProt P05023); assay: Na-K-ATP-ase activity in sarcolemma preparations; format: biochemical; details: 10^-7 M, 50 mM Tris-HCl pH 7.5
# T1 construct: Sarcolemma preparations were made according to D. M. Bers; from tissue; host or cells: sarcolemma preparation (heart, from the cited Bers 1979 method and the context)
# Experimental: (§1) Sarcolemma preparations were made according to D. M. Bers [Biochem. Biophys. Acta 555, 131 (1979)]. NADH-dichlorophenol-reductase was determined by using a Centrifi-CHEM® enzyme-analyzer. The activity of Na-K-ATP-ase was measured in 50 mM Tris-HCl (at pH 7.5). […] The activity of these enzymes was not altered by even a 10^-4 M concentration of compound 22.
# [5] = tested on: NADH-dichlorophenol-reductase; assay: NADH-dichlorophenol-reductase (NADH oxydase) activity in sarcolemma preparations; format: biochemical; details: 10^-7 M
# Experimental: as §1
# [6] = tested on: conscious cats; assay: Investigation on chronically catheterized conscious cats; format: in vivo, cat; details: oral 0.5 to 8.0 mg/kg
# From the text: (C) Investigation on conscious cats
# These animals were used according to either the method of Rabloczky and Mader ("Measurement of Systemic and Pulmonary Arterial Pressure in Conscious Animals", lecture on Congress of the International Union of Pharmacologists, Budapest, 1980) or to some modification thereof. The aorta and pulmonary artery were chronically catheterized for measuring both blood pressures. In the modification, the right ventricle was also catheterized for determining the dp/dtmax value.
# [7] = tested on: Ca-ATP-ase; assay: Ca-ATP-ase activity ex vivo after 5 days i.p. treatment; format: in vivo; details: 2 mg/kg i.p. daily for 5 days; corrected to 1 g of heart tissue
# Experimental: The activity of this enzyme was measured according to Mc Namara [J. Biochem. 75, 795 (1974)].
# In another experiment, compound 22 was given in a 2 mg/kg i.p. daily dose for 5 days. After taking an ex vivo sample, the enzyme activity was found as decreased by 30% (as corrected to 1 g of heart tissue).
# [8] = Acute toxicity (LD50) in mice; details: mouse, in vivo
# From the text: (§2) The acute toxicity data of compound 22 are given as LD50 values in Table 2.
# [9] = Acute toxicity (LD50) in rats; details: rat, in vivo
# From the text: as §2
# [10] = tested on: ^45 Ca^2+ uptake into the sarcoplasma reticulum; assay: 45Ca2+ uptake into the sarcoplasma reticulum in the presence of ATP; format: biochemical; details: 10^-2 M
# From the text: EFFECT OF COMPOUND 22 ON THE ^45 Ca^2+ UPTAKE INTO THE SARCOPLASMA RETICULUM IN THE PRESENCE OF ATP
# The method of S. Harigaya [Circ. Res. 25, 761 (1969)] was used.
# [11] = patients suffering from chronic heart failure
compound,measurement,setting,value
"Nc1cc(-c2ccncc2)c[nH]c1=O [amrinone, 5-amino-(3,4'-bipyridin)-6(1H)-one]",positive inotropic action compared with compound 22,"[1]; 2 mg/kg i.v. amrinone versus 0.4 mg/kg i.v. compound 22, dogs",not more effective than that of 0.4 mg/kg of compound 22
same,positive inotropic action after an acute myocardial ischaemia,[1]; anaesthetized open-chest dogs,significantly decreased
same,cardiac output,[2]; [11],significantly increased
same,resistance of the peripheral vessels,[2]; [11],diminished
same,side-effects,[2]; therapeutic use,severe side-effects appearing in the blood picture
"Cc1nc(NCCO)c2c(n1)N(Cc1ccccc1)C(=O)CO2 [Example 69, 8-Benzyl-2-methyl-4-(2-hydroxyethyl)-amino-2-methyl-6,7-dihydro-8H-pyrimidino[5,4-b][1,4]oxazin-7-one]",change in vivo at 5 mg/kg,[3],66%
"CCCCOC(=O)CN1C(=O)COc2c(NCCO)nc(C)nc21 [Example 67, 8-(n-Butoxycarbonyl)methyl-4-(2-hydrocyethyl)amino-2-methyl-6,7-dihydro-8H-pyrimido[5,4-b][1,4]oxazin-7-one hydrochloride]",change in vivo at 5 mg/kg,[3],37%
"CC(C)(C)NCC(O)c1ccc(O)c(CO)n1 (stereo not drawn) [Pirbuterol, 1-(5-hydroxy-6-hydroxymethyl-2-pyridyl)-2-tertiary-butylaminoethanol]",observation after a longer period of oral treatment,[2]; longer period,addiction was observed
same,effect during oral treatment,[2]; oral treatment for some weeks,favorable effect
"Cc1nc(NCCO)c2c(n1)N(CC(=O)N1CCOCC1)C(=O)CO2 [Example 66, 4-(2-Hydroxyethyl)-amino-2-methyl-8-(4-morpholinylcarbonyl)-methyl-6,7-dihydro-8H-pyrimido[5,4-b][1,4]oxazin-7-one]",change in vivo at 5 mg/kg,[3],58.3%
"Cc1nc(NCCCN2CCOCC2)c2c(n1)NC(=O)CO2 [Example 60, 2-Methyl-4-[3-(4-morpholinyl)-1-propyl]-amino-6,7-dihydro-8H-pyrimido[5,4-b][1,4]oxazin-7-one]",change in vivo at 5 mg/kg,[3],51%
C[C@@H]1O[C@@H](O[C@H]2C[C@@H](O)[C@]3(CO)[C@H]4[C@H](O)C[C@]5(C)[C@@H](C6=CC(=O)OC6)CC[C@]5(O)[C@@H]4CC[C@]3(O)C2)[C@H](O)[C@H](O)[C@H]1O [Ouabain],Na-K-ATP-ase activity,[4],strongly inhibited
same,indophenol-reductase inhibition,[5],slightly
"CC(=O)CN1C(=O)COc2c(NCCO)nc(C)nc21 [Example 29, 4-(2-Hydroxyethyl)-amino-2-methyl-8-(2-oxopropyl)-6,7-dihydro-8H-pyrimido[5,4-b][1,4]oxazine-7-one]",change in vivo at 5 mg/kg,[3],40%
1-(4-hydroxyphenyl)-3-tertiary-butylamino-2-propanol [Prenalterol],cardiac performance,[2]; chronic oral treatment,not improved
same,effect in acute cardiac insufficiency,"[2]; given intravenously, clinics",very effective
"Cc1nc(NCCN2CCOCC2)c2c(n1)NC(=O)CO2 [Example 22, 2-Methyl-4-[2-(4-morpholinyl)-ethyl]-amino-6,7-dihydro-8H-pyrimido[5,4-b][1,4]oxazin-7-one dihydrochloride]",change in vivo at 5 mg/kg,[3],70%
same,MCF increase,[1]; 1 mg/kg i.d.,35 to 40%
same,MCF effect relative to amrinone,[1]; i.d. administration,at least 5 times
same,peak increase in dp/dtmax,[6],about 60%
same,"Ca-ATP-ase enzyme activity decrease, ex vivo sample",[7],30%
same,LD50,"[8]; ip, Female",573 mg/kg
same,LD50,"[8]; ip, Male",572 mg/kg
same,LD50,"[8]; iv, Female",340 mg/kg
same,LD50,"[8]; iv, Male",324 mg/kg
same,LD50,"[8]; po, Female",1420 mg/kg
same,LD50,"[8]; po, Male",1360 mg/kg
same,LD50,"[9]; ip, Female",260 mg/kg
same,LD50,"[9]; ip, Male",315 mg/kg
same,LD50,"[9]; iv, Female",232 mg/kg
same,LD50,"[9]; iv, Male",253 mg/kg
same,LD50,"[9]; po, Female",810 mg/kg
same,LD50,"[9]; po, Male",830 mg/kg
"CC(C)NCC(O)c1ccc(O)c(O)c1 (stereo not drawn) [IS, isoproterenol, reference compound]",blood circulation parameters,"[3]; 0.2 μg/kg i.v., cats",did not influence
same,MCF response,"[3]; 0.2 μg/kg i.v., internal standard, cats",short-lasting and completely reversible
CCOC(=O)CN1C(=O)COc2c(N)nc(C)nc21 [Example 73],change in vivo at 5 mg/kg,[3],50%
"Cc1nc(NCC2CN(Cc3ccccc3)CCO2)c2c(n1)NC(=O)CO2 (stereo not drawn) [Example 27, 4-[(4-Benzyl-2-morpholinyl)-methyl]-amino-2-methyl-6,7-dihydro-8H-pyrimido[5,4-b][1,4]oxazin-7-one dihydrochloride dihydrate]",change in vivo at 5 mg/kg,[3],130%
same,MCF increase,"[1]; 1 mg/kg i.v., dogs",40%
same,coronary flow increase,"[1]; 1 mg/kg i.v., dogs",20%
same,decrease in diastolic pressure,"[1]; 1 mg/kg i.v., dogs",20%
same,decrease in the systemic systolic arterial blood pressure,"[1]; 1 mg/kg i.v., dogs",10%
same,duration of the coronary response,"[1]; 1 mg/kg i.v., dogs",20 min
same,half-life of the MCF effect,"[1]; 1 mg/kg i.v., dogs",10 min
same,heart rate increase (tachycardia),"[1]; 1 mg/kg i.v., dogs",10%
same,MCF increase,"[1]; 5 mg/kg i.d., dogs",30%
same,duration of the MCF increase,"[1]; 5 mg/kg i.d., dogs",30 min
Cn1c(=O)c2c(ncn2C)n(C)c1=O [caffeine],inhibition of Ca-uptake,[10],~25%
CCOC(=O)CN1C(=O)COc2c(NCCO)nc(C)nc21 [Example 37],change in vivo at 5 mg/kg,[3],55.5%
same,positive inotropic action after i.d. administration,"[3]; i.d., dose of both 20 mg/kg and 5 mg/kg",strong positive inotropic action
same,MCF increase,"[1]; 0.5 mg/kg i.v., dogs",56%
same,coronary flow increase,"[1]; 0.5 mg/kg i.v., dogs",34%
same,decrease in the systemic arterial blood pressure,"[1]; 0.5 mg/kg i.v., dogs",10 to 15%
same,tachycardia,"[1]; 0.5 mg/kg i.v., dogs",6 to 7%
same,MCF increase,"[1]; 1 mg/kg i.v., dogs",46%
same,coronary flow increase,"[1]; 1 mg/kg i.v., dogs",20%
same,duration of the coronary response,"[1]; 1 mg/kg i.v., dogs",10 min
same,heart rate increase (tachycardia),"[1]; 1 mg/kg i.v., dogs",13%
same,decrease in the systemic arterial blood pressure,"[1]; 1.0 mg/kg i.v., dogs",20%
same,duration of the MCF increase,"[1]; 1.0 mg/kg i.v., dogs",10 min
same,duration of the heart rate increase,"[1]; 1.0 mg/kg i.v., dogs",5 min
same,MCF increase,"[1]; 5 mg/kg i.d., dogs",about 30%
same,duration of the MCF increase,"[1]; 5 mg/kg i.d., dogs",60 min
"Cc1nc(N2CCOCC2)c2c(n1)N(CC(O)CO)C(=O)CO2 (stereo not drawn) [Example 57, 8-(2,3-Dihydroxypropyl)-2-methyl-4-(4-morpholinyl)-6,7-dihydro-8H-pyrimido[5,4-b][1,4]oxazin-7-one]",change in vivo at 5 mg/kg,[3],45%
Cc1nc(Cl)c2c(n1)N(CC(O)CO)C(=O)CO2 (stereo not drawn) [Example 56],change in vivo at 5 mg/kg,[3],100%
"COc1cc([S+](C)[O-])ccc1-c1nc2ncccc2[nH]1 (stereo not drawn) [Sulmazole, 2-(2-methoxy-4-methylsulfinylphenyl)-1H-imidazo[4,5-b]pyridine]",side-effects,[2]; clinical tests,relatively frequent side-effects
Cc1nc2c(c(N(CCO)Cc3ccccc3)n1)OCC(=O)N2 [Example 11],change in vivo at 5 mg/kg,[3],83%
